# Measurements reported in ChEMBL document CHEMBL1151543, “Application of the trimethyl lock1 to Ganciclovir, a pro-prodrug with increased oral bioavailability” (Bioorg Med Chem Lett, 1996).
# Assay: Oral bioavailability in rat
# Type: ADME, organism-based
# Conditions: in vivo
row,bioavailability [%],SMILES
1,3.6,Nc1nc(O)c2ncn(COC(CO)CO)c2n1 [GANCICLOVIR]
2,15.6,CC(=O)Oc1cc(C)cc(C)c1C(C)(C)CC(=O)OCC(CO)OCn1cnc2c(O)nc(N)nc21 (stereo not drawn)
3,0,Cc1cc(C)c(C(C)(C)CC(=O)OCC(CO)OCn2cnc3c(O)nc(N)nc32)c(OCc2ccccc2)c1 (stereo not drawn)
